This note sets out measurements from patent publication US12479799B2, “Bioconjugation reagent and methods” (Universiteit Gent, priority 2019, dated 2025).

This series is described as follows: Glutathione exchange experiment (stability towards competing sulfhydryl groups, RP-HPLC). The format is physicochemical. The conditions noted are these: 0.1 M sodium phosphate buffer pH 7, 10 equiv of glutathione, 37° C., 96 hours. How it is done:
This example provides a stability experiment of the compound of the invention towards competing sulfhydryl groups.
Compound 4aa was incubated in a 0.1 M sodium phosphate buffer at pH 7 with 10 equiv of glutathione, incubated at 37° C. and shaken for 96 hours. The stability was checked using RP-HPLC [Phenomenex Luna C18 column using a flow rate of 1 mL/min; H2O method: 3 minutes column flushing with 100% H2O, then a gradient from 0 to 100% ACN in 20 minutes, followed by 5 minutes of flushing with 100% ACN]. […] Representative HPLC chromatogram is shown (FIG. 7).

As for “1-benzyl-5-hydroxy-4-((2-hydroxyethyl)thio)-5-methylpyrrolidin-2-one [Compound 4aa]”, the GSH exchange reaction result was “no GSH exchange reaction takes place”. For `CC1(O)C(SCCO)CC(=O)N1Cc1ccccc1` (centres unmarked) [4′aa, 1-benzyl-5-hydroxy-4-((2-hydroxyethyl)thio)-5-methylpyrrolidin-2-one], the “stability of conjugated compound in presence of glutathione” value is “stable”.
